The results in this text go back to patent US7951815B2, “Substituted 1,4,8-triazaspiro [4,5]decan-2-one compounds” (Gruenenthal GmbH, priority 2004, dated 2011).

For orientation: inhibition means the percentage by which the read-out fell short of the control.

Read-outs that look alike come from different tables or passages of the source.

In one assay the target is T1, 5-HT transporter (Rattus norvegicus, UniProt P31652).
T1 construct: synaptosomes of rat brain areas are freshly isolated; from tissue; host or cells: rat brain synaptosomes (P2 fraction) from marrow and pons
T1 sequence (P31652 whole entry): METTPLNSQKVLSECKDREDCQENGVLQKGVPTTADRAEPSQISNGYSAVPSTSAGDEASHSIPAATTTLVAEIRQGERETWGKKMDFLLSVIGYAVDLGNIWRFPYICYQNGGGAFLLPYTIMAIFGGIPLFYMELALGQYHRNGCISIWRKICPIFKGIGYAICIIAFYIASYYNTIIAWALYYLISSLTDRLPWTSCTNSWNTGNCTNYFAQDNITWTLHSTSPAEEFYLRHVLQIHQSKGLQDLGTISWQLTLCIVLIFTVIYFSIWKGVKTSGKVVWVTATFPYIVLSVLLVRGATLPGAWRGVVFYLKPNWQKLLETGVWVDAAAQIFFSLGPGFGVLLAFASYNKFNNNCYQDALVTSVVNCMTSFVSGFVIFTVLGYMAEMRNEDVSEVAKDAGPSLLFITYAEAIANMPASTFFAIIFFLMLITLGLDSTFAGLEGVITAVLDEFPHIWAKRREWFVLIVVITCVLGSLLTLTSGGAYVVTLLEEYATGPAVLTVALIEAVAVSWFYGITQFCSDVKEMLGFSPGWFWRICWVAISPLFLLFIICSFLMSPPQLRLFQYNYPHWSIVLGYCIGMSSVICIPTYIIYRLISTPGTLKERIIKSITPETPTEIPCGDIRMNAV
The experiment in a line: Inhibition of 5-HT uptake in rat brain synaptosomes. In kind it is biochemical. As to conditions: rat, 1 μM; for inhibition at 1 µM: read-out: Uptake 5-HT, % inhibition.

The test system of assay [1] is batrachotoxin (BTX) binding site of the sodium channel. The experiment in a line: Affinity to the batrachotoxin (BTX) binding site of the sodium channel. As to conditions: rat cerebrocortex synaptosomes, test concentration not given.

Regarding `COc1ccc(CN2C(=O)[C@H](Cc3ccccc3)NC23CCN(C(=O)c2ccc(Cl)cc2)CC3)cc1.Cl` (racemic) [Example 27, 3-(S,R)-benzyl-8-(4-chloro-benzoyl)-1-(4-methoxy-benzyl)-1,4,8-triazaspiro[4,5]decan-2-one hydrochloride], the “Uptake 5-HT, rat, 1 μM, % inhibition” value on 5-HT transporter (Table II) worked out at 78%. In assay [1] (Table II), this compound gave a BTX inhibition of 79.

In the case of `COC(=O)c1ccc(CN2C(=O)CNC23CCN(C(=O)c2cc(C(C)(C)C)oc2C)CC3)cc1` [Example 292, Methyl 4-[8-(5-tert-butyl-2-methylfuran-3-carbonyl)-2-oxo-1,4,8-triazaspiro[4,5]dec-1-ylmethyl]benzoate], at 5-HT transporter (Table III), the inhibition at 1 µM is 40%. In addition, in assay [1] (Table III), the BTX inhibition was determined as 40.

On to `CCCCN1C(=O)C(Cc2ccccc2)NC12CCN(C(=O)C1CCCCC1)CC2` (stereo not shown) [Example 180, 3-Benzyl-1-butyl-8-cyclohexanecarbonyl-1,4,8-triazaspiro[4,5]decan-2-one], for which, at 5-HT transporter (Table III), the inhibition at 1 µM is 63%. The compound also came in with a BTX inhibition in assay [1] (Table III) of 42.

For the compound `CCOC(=O)CN1C(=O)C(Cc2ccccc2)NC12CCN(C(=O)C1CC1)CC2` (stereo not shown) [Example 293, Ethyl (3-benzyl-8-cyclopropanecarbonyl-2-oxo-1,4,8-triazaspiro[4,5]dec-1-yl)acetate], the inhibition at 1 µM at 5-HT transporter (Table III) was determined as 55%. This compound also registered a BTX inhibition in assay [1] (Table III) of 31.

For `CSCCC1NC2(CCN(C(=O)c3c(Cl)ccc(C)c3F)CC2)N(Cc2ccccc2)C1=O` (stereo not shown) [Example 240, 1-Benzyl-8-(6-chloro-2-fluoro-3-methylbenzoyl)-3-(2-methylsulfanylethyl)-1,4,8-triazaspiro[4,5]decan-2-one], the inhibition at 1 µM at 5-HT transporter (Table III) came to 54%. The compound also yielded a BTX inhibition in assay [1] (Table III) of 30.

Take `CCC(CC)C(=O)N1CCC2(CC1)N[C@@H](Cc1ccccc1)C(=O)N2Cc1ccc(OC)cc1.Cl` (racemic) [Example 30, 3-(S,R)-benzyl-8-(2-ethylbutyryl)-1-(4-methoxybenzyl)-1,4,8-triazaspiro[4,5]decan-2-one hydrochloride]: the “Uptake 5-HT, rat, 1 μM, % inhibition” value on 5-HT transporter (Table II) is listed as 42%. The same compound had a BTX inhibition in assay [1] (Table II) of 35.

Turning to `COc1ccc(CC(=O)N2CCC3(CC2)NC(Cc2ccccc2)C(=O)N3C)cc1` (stereo not shown) [Example 176, 3-Benzyl-8-[2-(4-methoxyphenyl)acetyl]-1-methyl-1,4,8-triazaspiro[4,5]decan-2-one], the inhibition at 1 µM on 5-HT transporter (Table III) worked out at 37%. Besides, in assay [1] (Table III), the BTX inhibition amounted to 30.

As to `Cc1nn(-c2ccccc2)nc1C(=O)N1CCC2(CC1)NC(Cc1ccccc1)C(=O)N2C` (stereo not shown) [Example 168, 3-Benzyl-1-methyl-8-(5-methyl-2-phenyl-2H-[1,2,3]triazole-4-carbonyl)-1,4,8-triazaspiro[4,5]decan-2-one], at 5-HT transporter (Table III), the inhibition at 1 µM worked out at 46%. This compound also registered a BTX inhibition in assay [1] (Table III) of 44.

Consider `CCCCN1C(=O)C(Cc2ccccc2)NC12CCN(C(=O)c1ccc(I)cc1)CC2` (stereo not shown) [Example 207, 3-Benzyl-1-butyl-8-(4-Iodobenzoyl)-1,4,8-triazaspiro[4,5]decan-2-one], for which the inhibition at 1 µM on 5-HT transporter (Table III) was found to be 76%. The compound further registered a BTX inhibition in assay [1] (Table III) of 57.

On to `Cl.O=C(c1cccc(F)c1F)N1CCC2(CC1)N[C@@H](Cc1ccccc1)C(=O)N2Cc1ccccc1` [Example 54, 1,3-(S)-dibenzyl-8-(2,3-difluorobenzoyl)-1,4,8-triazaspiro[4,5]decan-2-one hydrochloride], for which the inhibition at 1 µM on 5-HT transporter (Table II) was 81%. This compound also displayed a BTX inhibition in assay [1] (Table II) of 37.

As for `Cc1nc(C(F)(F)F)ccc1C(=O)N1CCC2(CC1)NC(C(C)C)C(=O)N2CCOc1ccccc1` (stereo not shown) [Example 167, 3-Isopropyl-8-(2-methyl-6-trifluoromethylpyridin-3-carbonyl)-1-(2-phenoxyethyl)-1,4,8-triazaspiro[4,5]decan-2-one], the inhibition at 1 µM at 5-HT transporter (Table III) is 52%. In assay [1] (Table III), the BTX inhibition stood at 38.

`Cl.O=C(CCc1ccccc1)N1CCC2(CC1)N[C@@H](Cc1ccccc1)C(=O)N2Cc1ccccc1` [Example 58, 1,3-(S)-dibenzyl-8-(3-phenylpropionyl)-1,4,8-triazaspiro[4,5]decan-2-one hydrochloride]: on 5-HT transporter (Table II), the inhibition at 1 µM worked out at 46%. The compound further had a BTX inhibition in assay [1] (Table II) of 46.

As to `CCCCN1C(=O)C(CCSC)NC12CCN(C(=O)C1COc3ccc(Cl)cc3C1)CC2` (stereo not shown) [Example 150, 1-Butyl-8-(6-Chloro-2H-chroman-3-carbonyl)-3-(2-methylsulfanylethyl)-1,4,8-triazaspiro[4,5]decan-2-one], the “Uptake 5-HT, rat, 1 μM, % inhibition” value on 5-HT transporter (Table III) is 72%. The compound further showed a BTX inhibition in assay [1] (Table III) of 56.

For `CN1C(=O)C(Cc2ccccc2)NC12CCN(C(=O)C=Cc1ccccc1Cl)CC2` (stereo not shown) [Example 203, 3-Benzyl-8-[3-(2-chlorophenyl)acryloyl]-1-methyl-1,4,8-triazaspiro[4,5]decan-2-one], on 5-HT transporter (Table III), the inhibition at 1 µM was 34%. Further, the BTX inhibition in assay [1] (Table III) came out at 48.

For `CCCCN1C(=O)C(Cc2ccccc2)NC12CCN(C(=O)c1cc(F)ccc1C(F)(F)F)CC2` (stereo not shown) [Example 175, 3-Benzyl-1-butyl-8-(5-fluoro-2-trifluoromethylbenzoyl)-1,4,8-triazaspiro[4,5]decan-2-one], the inhibition at 1 µM on 5-HT transporter (Table III) was 69%. In assay [1] (Table III), this compound had a BTX inhibition of 38.

For the compound `CCCc1c(C(=O)N2CCC3(CC2)NC(Cc2ccccc2)C(=O)N3CC(=O)OCC)cnn1-c1ccccc1` (stereo not shown) [Example 306, Ethyl [3-benzyl-2-oxo-8-(1-phenyl-5-propyl-1H-pyrazole-4-carbonyl)-1,4,8-triazaspiro[4,5]dec-1-yl]acetate], the inhibition at 1 µM at 5-HT transporter (Table III) came to 85%. For the same compound, the BTX inhibition in assay [1] (Table III) came to 68.

Take `O=C(C=Cc1ccccc1)N1CCC2(CC1)NC(Cc1ccccc1)C(=O)N2Cc1ccccc1` (stereo not shown) [Example 223, 1,3-Dibenzyl-8-(3-phenylacryloyl)-1,4,8-triazaspiro[4,5]decan-2-one]: the inhibition at 1 µM at 5-HT transporter (Table III) came to 49%. In assay [1] (Table III), this compound displayed a BTX inhibition of 62.

For `C=CCN1C(=O)C(C(C)C)NC12CCN(C(=O)Cc1cccc(OC)c1)CC2` (stereo not shown) [Example 296, 1-Allyl-3-isopropyl-8-[2-(3-methoxyphenyl)acetyl]-1,4,8-triazaspiro[4,5]decan-2-one], the inhibition at 1 µM at 5-HT transporter (Table III) turned out to be 30%. Further, in assay [1] (Table III), the BTX inhibition was 36.

For the compound `C=CCN1C(=O)C(CCSC)NC12CCN(C(=O)c1cnn(-c3ccccc3)c1CCC)CC2` (stereo not shown) [Example 323, 1-Allyl-3-(2-methylsulfanylethyl)-8-(1-phenyl-5-propyl-1H-pyrazole-4-carbonyl)-1,4,8-triazaspiro[4,5]decan-2-one], on 5-HT transporter (Table III), the inhibition at 1 µM turned out to be 33%. Also, the BTX inhibition in assay [1] (Table III) stood at 43.

Regarding `CC(C)(C)CC(=O)N1CCC2(CC1)NC(Cc1ccccc1)C(=O)N2Cc1ccccc1` (stereo not shown) [Example 230, 1,3-Dibenzyl-8-(3,3-dimethylbutyryl)-1,4,8-triazaspiro[4,5]decan-2-one], the inhibition at 1 µM on 5-HT transporter (Table III) turned out to be 72%. This compound also had a BTX inhibition in assay [1] (Table III) of 30.

In the case of `Cl.O=C(c1ccco1)N1CCC2(CC1)N[C@@H](Cc1ccccc1)C(=O)N2Cc1ccccc1` [Example 60, 1,3-(S)-dibenzyl-8-(furan-2-carbonyl)-1,4,8-triazaspiro[4,5]decan-2-one hydrochloride], the inhibition at 1 µM at 5-HT transporter (Table II) came out at 80%. Also, in assay [1] (Table II), the BTX inhibition came out at 39.

In the case of `O=C(CCCOc1ccccc1)N1CCC2(CC1)NC(Cc1ccccc1)C(=O)N2Cc1ccccc1` (stereo not shown) [Example 209, 1,3-Dibenzyl-8-(4-phenoxybutyryl)-1,4,8-triazaspiro[4,5]decan-2-one], at 5-HT transporter (Table III), the inhibition at 1 µM was found to be 69%. This compound yielded a BTX inhibition in assay [1] (Table III) of 67.

For the compound `CCSc1ncccc1C(=O)N1CCC2(CC1)NC(CC(C)C)C(=O)N2CCCCOC(C)=O` (stereo not shown) [Example 257, Butyl 4-[8-(2-ethylsulfanylpyridin-3-carbonyl)-3-isobutyl-2-oxo-1,4,8-triazaspiro[4,5]dec-1-yl]acetate], the “Uptake 5-HT, rat, 1 μM, % inhibition” value on 5-HT transporter (Table III) is 59%. The BTX inhibition in assay [1] (Table III) was 35.

Take `O=C(c1ccc(-c2ccccc2)cc1)N1CCC2(CC1)NCC(=O)N2Cc1ccccc1F` [Example 262, 8-(Biphenyl-4-carbonyl)-1-(2-fluorobenzyl)-1,4,8-triazaspiro[4,5]decan-2-one]: the inhibition at 1 µM on 5-HT transporter (Table III) is 60%. Besides, the BTX inhibition in assay [1] (Table III) was found to be 70.

Turning to `CCOC(=O)CN1C(=O)C(CC(C)C)NC12CCN(C(=O)CC(C)C)CC2` (stereo not shown) [Example 288, Ethyl [3-isobutyl-8-(3-methylbutyryl)-2-oxo-1,4,8-triazaspiro[4,5]dec-1-yl]acetate], the inhibition at 1 µM at 5-HT transporter (Table III) is 45%. This compound returned a BTX inhibition in assay [1] (Table III) of 32.

Take `CCSc1ncccc1C(=O)N1CCC2(CC1)NC(Cc1ccccc1)C(=O)N2Cc1ccccc1` (stereo not shown) [Example 145, 1,3-Dibenzyl-8-(2-ethylsulfanylpyridin-3-carbonyl)-1,4,8-triazaspiro[4,5]decan-2-one]: at 5-HT transporter (Table III), the inhibition at 1 µM was 89%. This compound also had a BTX inhibition in assay [1] (Table III) of 64.

In the case of `CCC(C(=O)N1CCC2(CC1)NC(Cc1ccccc1)C(=O)N2Cc1ccccc1)c1ccccc1` (stereo not shown) [Example 237, 1,3-Dibenzyl-8-(2-phenylbutyryl)-1,4,8-triazaspiro[4,5]decan-2-one], on 5-HT transporter (Table III), the inhibition at 1 µM was 63%. Besides, in assay [1] (Table III), the BTX inhibition is reported as 42.

Turning to `COc1ccc(OC)c(CC(=O)N2CCC3(CC2)NC(CCSC)C(=O)N3Cc2ccccc2F)c1` (stereo not shown) [Example 195, 8-[2-(2,5-Dimethoxyphenyl)acetyl]-1-(2-fluorobenzyl)-3-(2-methylsulfanylethyl)-1,4,8-triazaspiro[4,5]decan-2-one], the inhibition at 1 µM at 5-HT transporter (Table III) turned out to be 50%. Also, in assay [1] (Table III), the BTX inhibition amounted to 34.

For `COC(=O)c1ccc(CN2C(=O)CNC23CCN(C(=O)c2ccc(C(C)(C)C)cc2)CC3)cc1` [Example 305, Methyl 4-[8-(4-tert-Butylbenzoyl)-2-oxo-1,4,8-triazaspiro[4,5]dec-1-ylmethyl]benzoate], at 5-HT transporter (Table III), the inhibition at 1 µM was 37%. The BTX inhibition in assay [1] (Table III) turned out to be 51.
